Reference: patent publication US20250206732A1, “COMPOUNDS AND METHODS FOR THE TARGETED DEGRADATION OF KRAS” (Arvinas Operations, Inc., priority 2022, published 2025)

Target: T1, AsPC-1 HiBiT-KRASG12D (Homo sapiens, UniProt P01116, G12D)
T1 construct: insert the HiBiT tag onto the N-terminus of one or more of the endogenous KRAS alleles; endogenous in cells; host or cells: AsPC-1 (ATCC CRL-1682), CRISPR-Cas9 knock-in clone, one tagged allele
Assay: HiBiT degradation assay (G12D), AsPC-1 HiBiT-KRASG12D cells
Format: cell-based
Details: 24 hours treatment; for Dmax: ASPC1, AsPC-1 HiBiT-KRASG12D cells, maximum degradation observed; for DC50: AsPC-1 HiBiT-KRASG12D cells, HiBiT luminescence
In short: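 Luminescence read-out of HiBiT-tagged endogenous KRASG12D in AsPC-1 cells after 24 h compound exposure at 37° C; lytic Nano-Glo HiBiT detection, 45 min at room temperature. A parallel alamar blue read (4 h) checked viability, normalized to DMSO-only controls.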

T1 sequence (P01116 1-188 isoform P01116-2 G12D): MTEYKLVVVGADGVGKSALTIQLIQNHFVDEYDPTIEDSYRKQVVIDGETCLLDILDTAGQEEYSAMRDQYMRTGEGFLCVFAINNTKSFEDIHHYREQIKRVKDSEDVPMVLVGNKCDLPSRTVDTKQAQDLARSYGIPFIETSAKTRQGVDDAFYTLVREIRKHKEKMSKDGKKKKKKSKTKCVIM

Row | Compound | Dmax [%] | DC50 [nM]
1 | CCc1cccc2cc(O)cc(-c3ncc4c(N5CC6CCC(C5)N6)nc(OC[C@]56CCCN5C[C@H](Oc5cc([C@H](C(=O)N7C[C@H](O)C[C@H]7C(=O)N[C@@H](C)c7ccc(-c8scnc8C)cc7)C(C)C)on5)CC6)nc4c3F)c12 [Compound 318, (2S,4R)-1-[(2R)-2-[3-[[(6R,8aR)-8a-[[4-(3,8-diazabicyclo[3.2.1]octan-3-yl)-7-(8-ethyl-3-hydroxy-1-naphthyl)-8-fluoro-pyrido[4,3-d]pyrimidin-2-yl]oxymethyl]-2,3,5,6,7,8-hexahydro-1H-indolizin-6-yl]oxy]isoxazol-5-yl]-3-methyl-butanoyl]-4-hydroxy-N-[(1S)-1-[4-(4-methylthiazol-5-yl)phenyl]ethyl]pyrrolidine-2-carboxamide] | 20 to 60 | 1000 to 3000
2 | CCc1cccc2cc(O)cc(-c3ncc4c(N5CC6CCC(C5)N6C=O)nc(OCCN5CCC(CC6CN(c7cc([C@H](C(=O)N8C[C@H](O)C[C@H]8C(=O)N[C@@H](C)c8ccc(-c9scnc9C)cc8)C(C)C)on7)C6)CC5)nc4c3F)c12 [Compound 246] | – | > 3000
3 | C#Cc1c(F)ccc2cc(O)cc(-c3ncc4c(N5CC6CCC(C5)N6)nc(OCCN5CCC(COc6cc([C@H](C(=O)N7C[C@H](O)C[C@H]7C(=O)N[C@@H](C)c7ccc(-c8ccnn8C)cc7)C(C)C)on6)CC5)nc4c3F)c12 (relative stereo) [Compound 85, (2S,4R)-1-[(2R*)-2-{3-[(1-{2-[(4-{3,8-diazabicyclo[3.2.1]octan-3-yl}-7-(8-ethynyl-7-fluoro-3-hydroxynaphthalen-1-yl)-8-fluoropyrido[4,3-d]pyrimidin-2-yl)oxy]ethyl}piperidin-4-yl)methoxy]-1,2-oxazol-5-yl}-3-methylbutanoyl]-4-hydroxy-N-[(1S)-1-[4-(1-methyl-1H-pyrazol-5-yl)phenyl]ethyl]pyrrolidine-2-carboxamide] | 80 to 100 | < 600
4 | CCc1cccc2cc(O)cc(-c3ncc4c(N5CC6CCC(C5)N6)nc(OC[C@]56CCCN5[C@@H](COC(=O)NCc5cc([C@@H](C(=O)N7C[C@H](O)C[C@H]7C(=O)N[C@@H](C)c7ccc(-c8scnc8C)cc7)C(C)C)on5)CC6)nc4c3F)c12 [Compound 103, [(3R,7aR)-7a-{[(4-{3,8-diazabicyclo[3.2.1]octan-3-yl}-7-(8-ethyl-3-hydroxynaphthalen-1-yl)-8-fluoropyrido[4,3-d]pyrimidin-2-yl)oxy]methyl}-hexahydro-1H-pyrrolizin-3-yl]methyl N-({5-[(2S)-1-[(2S,4R)-4-hydroxy-2-{[(1S)-1-[4-(4-methyl-1,3-thiazol-5-yl)phenyl]ethyl]carbamoyl}pyrrolidin-1-yl]-3-methyl-1-oxobutan-2-yl]-1,2-oxazol-3-yl}methyl) carbamate] | 20 to 60 | 1000 to 3000
5 | C#Cc1c(F)ccc2cc(O)cc(-c3ncc4c(N5CC6CCC(C5)N6)nc(OCCN5CCC(CN6CCN(c7cc([C@H](C(=O)N8C[C@H](O)C[C@H]8C(=O)N[C@@H](C)c8ccc(-c9scnc9C)cc8)C(C)C)on7)CC6)CC5)nc4c3F)c12 [Compound 206, (2S,4R)-1-[(2R)-2-(3-{4-[(1-{2-[(4-{3,8-diazabicyclo[3.2.1]octan-3-yl}-7-(8-ethynyl-7-fluoro-3-hydroxynaphthalen-1-yl)-8-fluoropyrido[4,3-d]pyrimidin-2-yl)oxy]ethyl}piperidin-4-yl)methyl]piperazin-1-yl}-1,2-oxazol-5-yl)-3-methylbutanoyl]-4-hydroxy-N-[(1S)-1-[4-(4-methyl-1,3-thiazol-5-yl)phenyl]ethyl]pyrrolidine-2-carboxamide] | 80 to 100 | < 600
6 | C#Cc1c(F)ccc2cc(O)cc(-c3ncc4c(N5CC6CCC(C5)N6)nc(OCCN5CCC(CC6CN(c7cc([C@H](C(=O)N8C[C@H](O)C[C@H]8C(=O)N[C@@H](C)c8ccc(-c9scnc9C)cc8)C(C)C)on7)C6)CC5)nc4c3F)c12 (single isomer, unassigned) [Compound 288] | 80 to 100 | < 600
7 | CCc1cccc2cc(O)cc(-c3ncc4c(N5CC6CCC(C5)N6)nc(OC[C@@H]5CC[C@@H](COC(=O)N6CCN(c7cc([C@@H](C(=O)N8C[C@H](O)C[C@H]8C(=O)N[C@@H](C)c8ccc(-c9scnc9C)cc8)C(C)C)on7)C[C@@H]6C)N5C)nc4c3F)c12 [Compound 280, [(2S,5S)-5-[[4-(3,8-diazabicyclo[3.2.1]octan-3-yl)-7-(8-ethyl-3-hydroxy-1-naphthyl)-8-fluoro-pyrido[4,3-d]pyrimidin-2-yl]oxymethyl]-1-methyl-pyrrolidin-2-yl]methyl (2S)-4-[5-[(1S)-1-[(2S,4R)-4-hydroxy-2-[[(1S)-1-[4-(4-methylthiazol-5-yl)phenyl]ethyl]carbamoyl]pyrrolidine-1-carbonyl]-2-methyl-propyl]isoxazol-3-yl]-2-methyl-piperazine-1-carboxylate] | 20 to 60 | 600 to 1000
8 | CCc1cccc2cc(O)cc(-c3ncc4c(N5CC6CCC(C5)N6)nc(OC[C@@]56CCCN5[C@@H](COC(=O)N5CCN(c7cc(C(C(=O)N8C[C@H](O)C[C@H]8C(=O)N[C@@H](C)c8ccc(-c9scnc9C)cc8)C(C)C)on7)CC5)CC6)nc4c3F)c12 (single isomer, unassigned) [Compound 108, [(3R,7aS)-7a-{[(4-{3,8-diazabicyclo[3.2.1]octan-3-yl}-7-(8-ethyl-3-hydroxynaphthalen-1-yl)-8-fluoropyrido[4,3-d]pyrimidin-2-yl)oxy]methyl}-hexahydro-1H-pyrrolizin-3-yl]methyl 4-{5-[(2R*)-1-[(2S,4R)-4-hydroxy-2-{[(1S)-1-[4-(4-methyl-1,3-thiazol-5-yl)phenyl]ethyl]carbamoyl}pyrrolidin-1-yl]-3-methyl-1-oxobutan-2-yl]-1,2-oxazol-3-yl}piperazine-1-carboxylate] | 80 to 100 | < 600
9 | Cc1ncsc1-c1ccc([C@H](C)NC(=O)[C@@H]2C[C@@H](O)CN2C(=O)[C@@H](c2cc(N3CCN(C(=O)OC[C@H]4CC[C@]5(COc6nc(N7CC8CCC(C7)N8)c7cnc(-c8cccc9ccc(F)c(F)c89)c(F)c7n6)CCCN45)CC3)no2)C(C)C)cc1 (relative stereo) [Compound 63, [(3R,7aS)-7a-{[(4-{3,8-diazabicyclo[3.2.1]octan-3-yl}-7-(7,8-difluoronaphthalen-1-yl)-8-fluoropyrido[4,3-d]pyrimidin-2-yl)oxy]methyl}-hexahydro-1H-pyrrolizin-3-yl]methyl 4-{5-[(2R*)-1-[(2S,4R)-4-hydroxy-2-{[(1S)-1-[4-(4-methyl-1,3-thiazol-5-yl)phenyl]ethyl]carbamoyl}pyrrolidin-1-yl]-3-methyl-1-oxobutan-2-yl]-1,2-oxazol-3-yl}piperazine-1-carboxylate] | 20 to 60 | < 600
10 | CCc1cccc2cc(O)cc(-c3ncc4c(N5CC6CCC(C5)N6)nc(OC[C@@]56CCCN5[C@H](COC(=O)N5CC(Oc7cc([C@@H](C(=O)N8C[C@H](O)C[C@H]8C(=O)N[C@@H](C)c8ccc(-c9scnc9C)cc8)C(C)C)on7)C5)CC6)nc4c3F)c12 [Compound 127, [(3S,7aS)-7a-{[(4-{3,8-diazabicyclo[3.2.1]octan-3-yl}-7-(8-ethyl-3-hydroxynaphthalen-1-yl)-8-fluoropyrido[4,3-d]pyrimidin-2-yl)oxy]methyl}-hexahydro-1H-pyrrolizin-3-yl]methyl 3-({5-[(2S)-1-[(2S,4R)-4-hydroxy-2-{[(1S)-1-[4-(4-methyl-1,3-thiazol-5-yl)phenyl]ethyl]carbamoyl}pyrrolidin-1-yl]-3-methyl-1-oxobutan-2-yl]-1,2-oxazol-3-yl}oxy)azetidine-1-carboxylate] | < 20 | 600 to 1000
11 | CCc1cccc2cc(O)cc(-c3ncc4c(N5CC6CCC(C5)N6)nc(OCCN5CCC(CC6CN(CC(=O)N[C@H](C(=O)N7C[C@H](O)C[C@H]7C(=O)N[C@@H](C)c7ccc(-c8scnc8C)cc7)C(C)(C)C)C6)CC5)nc4c3F)c12 [Compound 273, (2S,4R)-1-[(2S)-2-(2-{3-[(1-{2-[(4-{3,8-diazabicyclo[3.2.1]octan-3-yl}-7-(8-ethyl-3-hydroxynaphthalen-1-yl)-8-fluoropyrido[4,3-d]pyrimidin-2-yl)oxy]ethyl}piperidin-4-yl)methyl]azetidin-1-yl}acetamido)-3,3-dimethylbutanoyl]-4-hydroxy-N-[(1S)-1-[4-(4-methyl-1,3-thiazol-5-yl)phenyl]ethyl]pyrrolidine-2-carboxamide] | 80 to 100 | < 600
12 | C#Cc1c(F)ccc2cc(O)cc(-c3ncc4c(N5CC6CCC(C5)N6)nc(OCCN5CCC(CN6CCN(c7cc([C@H](C(=O)N8C[C@H](O)C[C@H]8C(=O)N[C@@H](C)c8ccc(-c9ccnn9C)cc8)C(C)C)on7)CC6)CC5)nc4c3F)c12 [Compound 190, (2S,4R)-1-[(2R)-2-(3-{4-[(1-{2-[(4-{3,8-diazabicyclo[3.2.1]octan-3-yl}-7-(8-ethynyl-7-fluoro-3-hydroxynaphthalen-1-yl)-8-fluoropyrido[4,3-d]pyrimidin-2-yl)oxy]ethyl}piperidin-4-yl)methyl]piperazin-1-yl}-1,2-oxazol-5-yl)-3-methylbutanoyl]-4-hydroxy-N-[(1S)-1-[4-(1-methyl-1H-pyrazol-5-yl)phenyl]ethyl] pyrrolidine-2-carboxamide] | 80 to 100 | < 600
13 | C#Cc1c(F)ccc2cc(O)cc(-c3ncc4c(N5CC6CCC(C5)N6)nc(OCCN5CCC(CCC6CN(c7cc([C@H](C(=O)N8C[C@H](O)C[C@H]8C(=O)N[C@@H](C)c8ccc(-c9scnc9C)cc8)C(C)C)on7)C6)CC5)nc4c3F)c12 [Compound 184] | 80 to 100 | < 600
